From ChEMBL document CHEMBL1129853, “Design and biological evaluation of a series of thiophene-based 3-hydroxy-3-methylglutaryl coenzyme a reductase inhibitors” (Bioorg Med Chem Lett, 1997)

Legend:
[1] = molecular target: T1, 3-hydroxy-3-methylglutaryl-coenzyme A reductase (Rattus norvegicus) (UniProt P51639); assay: Tested in vitro for relative potency against HMG-CoA reductase in a microsomal preparation (relative to compactin =1); format: microsomes; conditions: Microsome
T1 sequence (whole entry): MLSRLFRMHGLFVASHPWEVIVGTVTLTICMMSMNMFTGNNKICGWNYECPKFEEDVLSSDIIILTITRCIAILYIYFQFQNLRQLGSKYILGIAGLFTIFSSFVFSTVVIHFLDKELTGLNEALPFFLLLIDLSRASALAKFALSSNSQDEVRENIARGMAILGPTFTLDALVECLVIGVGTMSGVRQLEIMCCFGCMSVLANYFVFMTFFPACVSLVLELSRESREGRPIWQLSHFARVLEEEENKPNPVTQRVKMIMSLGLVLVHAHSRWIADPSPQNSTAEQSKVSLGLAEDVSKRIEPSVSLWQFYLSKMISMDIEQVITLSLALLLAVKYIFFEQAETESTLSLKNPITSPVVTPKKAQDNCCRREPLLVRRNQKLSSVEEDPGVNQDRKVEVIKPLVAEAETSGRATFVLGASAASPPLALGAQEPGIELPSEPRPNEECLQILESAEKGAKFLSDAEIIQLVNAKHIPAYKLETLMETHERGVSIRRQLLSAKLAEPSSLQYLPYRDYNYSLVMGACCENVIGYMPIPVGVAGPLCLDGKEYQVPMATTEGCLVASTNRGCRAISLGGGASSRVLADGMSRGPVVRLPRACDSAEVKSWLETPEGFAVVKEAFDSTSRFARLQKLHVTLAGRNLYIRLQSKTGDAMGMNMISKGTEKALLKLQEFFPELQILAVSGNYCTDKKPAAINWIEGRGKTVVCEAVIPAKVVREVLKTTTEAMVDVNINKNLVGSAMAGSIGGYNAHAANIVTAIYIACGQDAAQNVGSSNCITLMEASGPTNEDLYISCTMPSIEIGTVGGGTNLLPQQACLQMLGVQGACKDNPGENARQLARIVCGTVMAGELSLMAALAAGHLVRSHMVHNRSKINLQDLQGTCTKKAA

[2] = molecular target: T2, 3-hydroxy-3-methylglutaryl-coenzyme A reductase (Rattus norvegicus, UniProt P51639); assay: Tested in vitro for the HMG-CoA reductase inhibitory activity in a microsomal preparation; format: microsomes, Microsome
T2 sequence (P51639 whole entry): T1 sequence (whole entry)

[3] = tested on: Rattus norvegicus; assay: Tested in vivo for the concentration required to produce relative potency of the incorporation of [14C]acetate into cholesterol (relative to compactin=1); format: functional
[4] = tested on: Rattus norvegicus; assay: Tested in vivo for the concentration required to produce 50% inhibition of the incorporation of [14C]acetate into cholesterol; format: functional

SMILES | Relative potency [1] | IC50 [2] [nM] | Relative potency [3] | ED50 [4] [mg/kg]
COc1ccc(-c2c(-c3ccccc3)sc(C(C)C)c2/C=C/[C@@H](O)C[C@@H](O)CC(=O)O)cc1 | 0.5 | 2430 | – | –
Cc1ccc(-c2sc(C(C)C)c(/C=C/[C@@H](O)C[C@@H](O)CC(=O)[O-])c2-c2ccc(F)cc2)cc1.[Na+] | 119 | 9.7 | 13 | 0.32
Cc1sc(C(C)C)c(/C=C/[C@@H](O)C[C@@H](O)CC(=O)[O-])c1-c1ccccc1.[Na+] | 12 | 94 | 21 | 0.19
CC(C)c1sc(-c2ccccc2)c(-c2ccc(-c3ccccc3)cc2)c1/C=C/[C@@H](O)C[C@@H](O)CC(=O)O | < 0.1 | > 10000 | – | –
CC(C)c1sc(C(C)C)c(-c2ccc(F)cc2)c1/C=C/[C@@H](O)C[C@@H](O)CC(=O)[O-].[Na+] | 44 | 26 | 50 | 0.08
CC(C)c1sc(-c2ccccc2)c(C2CCCC2)c1/C=C/[C@@H](O)C[C@@H](O)CC(=O)O | 2.8 | 417 | – | –
CC(C)=Cc1sc(C(C)C)c(/C=C/[C@@H](O)C[C@@H](O)CC(=O)[O-])c1-c1ccc(F)cc1.[Na+] | 77 | 15 | 37 | 0.11
CC[C@H](C)C(=O)O[C@H]1C[C@@H](C)C=C2C=C[C@H](C)[C@H](CC[C@@H]3C[C@@H](O)CC(=O)O3)[C@H]21 [LOVASTATIN] | 2.2 | 530 | 11 | 0.38
CC(C)c1sc(C2CCCC2)c(-c2ccc(F)cc2)c1/C=C/[C@@H](O)C[C@@H](O)CC(=O)O | 2 | 570 | – | –
CC(C)c1sc(-c2ccccc2)c(-c2ccccc2)c1/C=C/[C@@H](O)C[C@@H](O)CC(=O)[O-].[Na+] | 44 | 26 | 24 | 0.17
CC(C)c1sc(-c2ccccc2)c(-c2ccccc2F)c1/C=C/[C@@H](O)C[C@@H](O)CC(=O)O | 4.9 | 233 | – | –
CC(C)c1sc(CO)c(-c2ccc(F)cc2)c1/C=C/[C@@H](O)C[C@@H](O)CC(=O)O | 4 | 325 | – | –
CC(C)c1sc(-c2ccccc2)c(-c2ccc(F)cc2)c1/C=C/[C@@H](O)C[C@@H](O)CC(=O)[O-].[Na+] | 261 | 4.4 | 37 | 0.11
CCCCCCCCc1sc(C(C)C)c(/C=C/[C@@H](O)C[C@@H](O)CC(=O)O)c1-c1ccc(F)cc1 | < 0.1 | > 10000 | – | –
CC[C@H](C)C(=O)O[C@H]1CCC=C2C=C[C@H](C)[C@H](CC[C@@H]3C[C@@H](O)CC(=O)O3)[C@H]21 [MEVASTATIN] | 1 | 1150 | 1 | 4.02
CC(C)c1sc(-c2ccccc2)c(-c2cccc(F)c2)c1/C=C/[C@@H](O)C[C@@H](O)CC(=O)O | 23 | 49 | – | –
CC(C)c1sc(-c2ccc(Cl)cc2)c(-c2ccc(F)cc2)c1/C=C/[C@@H](O)C[C@@H](O)CC(=O)[O-].[Na+] | 55 | 21 | 6.3 | 0.64
CCCCCCCCc1c(-c2ccccc2)sc(C(C)C)c1/C=C/[C@@H](O)C[C@@H](O)CC(=O)O | < 0.1 | > 10000 | – | –
CC(C)c1sc(-c2ccccc2)c(-c2cccc(C(F)(F)F)c2)c1/C=C/[C@@H](O)C[C@@H](O)CC(=O)O | 0.4 | 2980 | – | –
CC(C)c1sc(-c2ccccc2)c(C2CCCCC2)c1/C=C/[C@@H](O)C[C@@H](O)CC(=O)[O-].[Na+] | 5.7 | 202 | 7.1 | 0.57
COc1ccc(-c2sc(C(C)C)c(/C=C/[C@@H](O)C[C@@H](O)CC(=O)[O-])c2-c2ccc(F)cc2)cc1.[Na+] | 183 | 6.3 | 27 | 0.15
CC(C)c1sc(-c2ccccc2)c(-c2cccs2)c1/C=C/[C@@H](O)C[C@@H](O)CC(=O)O | 0.8 | 1420 | – | –
CC(C)=Cc1c(-c2ccccc2)sc(C(C)C)c1/C=C/[C@@H](O)C[C@@H](O)CC(=O)O | 1.2 | 1000 | – | –
COCCOCc1sc(C(C)C)c(/C=C/[C@@H](O)C[C@@H](O)CC(=O)O)c1-c1ccc(F)cc1 | 5.6 | 206 | – | –
